In ChEMBL document CHEMBL1212744, “Relative contributions of active mediated transport and passive diffusion of fluoroquinolones with various lipophilicities in a Calu-3 lung epithelial cell model” (Antimicrob Agents Chemother, 2010):

Experiments:
[1] = Efflux ratio of apparent permeability across basolateral to apical side over apical to basolateral side in human Calu3 cells
[2] = Apparent permeability across basolateral to apical side in human Calu3 cells
[3] = Apparent permeability across apical to basolateral side in human Calu3 cells
[4] = Distribution coefficient, log D of the compound; details: octanol/water

Compound	efflux ratio [1]	Papp B→A [2] [×10⁻⁶ cm/s]	Papp A→B [3] [×10⁻⁶ cm/s]	logD [4]
Cc1c(F)c(N2CCNC(C)C2)cc2c1c(=O)c(C(=O)O)cn2C1CC1 (stereo unspecified) [GREPAFLOXACIN]	3.8	11.8	3.1	0.03
C[C@H]1COc2c(N3CCN(C)CC3)c(F)cc3c(=O)c(C(=O)O)cn1c23.C[C@H]1COc2c(N3CCN(C)CC3)c(F)cc3c(=O)c(C(=O)O)cn1c23.O [LEVOFLOXACIN]	–	–	–	-0.41
COc1c(N2C[C@@H]3CCCN[C@@H]3C2)c(F)cc2c(=O)c(C(=O)O)cn(C3CC3)c12 [MOXIFLOXACIN]	–	10.4	5	–
CCn1cc(C(=O)O)c(=O)c2cc(F)c(N3CCNCC3)cc21 [NORFLOXACIN]	3.3	2	0.6	-1.16
